Assays:
Hepatitis C virus [1] = experiment: Inhibition of HCV 1b NS5B Cdelta21 polymerase expressed in Escherichia coli assessed as inhibition of [alpha-33P]GTP incorporation into RNA relative to HCV-796; parameters: species or system Hepatitis C virus subtype 1b
Hepacivirus hominis = experiment: Ratio of inhibition of HCV 1b NS5B Cdelta21 polymerase to inhibition of HCV relative to HCV-796
Hepatitis C virus [2] = experiment: Antiviral activity against HCV infected in human BB7 cells assessed as inhibition of viral replication after 3 days relative to HCV-796; assay type: functional, Hepacivirus hominis

SMILES	Ratio (Hepatitis C virus [1])	Ratio (Hepacivirus hominis)	Ratio (Hepatitis C virus [2])
CNC(=O)c1c(-c2ccc(F)cc2)oc2cc(N(CCOP(=O)(O)OC[C@H]3O[C@@H](n4cnc(C(N)=O)n4)[C@@H]4OC(C)(C)O[C@@H]43)S(C)(=O)=O)c(C3CC3)cc12	11.8	1.57	18.6
CNC(=O)c1c(-c2ccc(F)cc2)oc2cc(N(CCOP(=O)(O)OC[C@H]3O[C@@H](n4cnc(C(N)=O)n4)[C@H](O)[C@@H]3O)S(C)(=O)=O)c(C3CC3)cc12	6.2	1.18	7.3
CNC(=O)c1c(-c2ccc(F)cc2)oc2cc(N(CCOP(=O)(O)O)S(C)(=O)=O)c(C3CC3)cc12	0.4	22.2	8.9
CNC(=O)c1c(-c2ccc(F)cc2)oc2cc(N(CCOC(=O)CCC(=O)OC[C@H]3O[C@@H](n4cnc(C(N)=O)n4)[C@@H]4OC(C)(C)O[C@@H]43)S(C)(=O)=O)c(C3CC3)cc12	42	0.31	13
CNC(=O)c1c(-c2ccc(F)cc2)oc2cc(N(CCO)S(C)(=O)=O)c(C3CC3)cc12 [NESBUVIR]	1	1	1
CNC(=O)c1c(-c2ccc(F)cc2)oc2cc(N(CCOC(=O)CCC(=O)OC[C@H]3O[C@@H](n4cnc(C(N)=O)n4)[C@H](O)[C@@H]3O)S(C)(=O)=O)c(C3CC3)cc12	22	0.28	6.2
